Results from patent publication US9493468B2, “Antifungal 5,6-dihydro-4H-pyrrolo[1,2-a][1,4]benzo-diazepines and 6H-pyrrolo[1,2-a][1,4]benzodiazepines substituted with heterocyclic derivatives” (Janssen Pharmaceutica NV, priority 2011, dated 2016).

Tests used:
Format in all cases: cell-based
[1] = tested on: Rhizopus oryzae; experiment: Antifungal activity in vitro, resazurin growth inhibition: Rhizopus oryzae (IHEM5223)
Protocol: (§1) The standard susceptibility screen is performed in 96-well plates (U-bottom, Greiner Bio-One). Serial dilutions (2-fold or 4-fold) of 20 mM compound stock solutions are made in 100% DMSO, followed by an intermediate dilution step in water. These serial dilutions (10 μl) are then spotted onto test-plates that can be stored in the dark at 4° C. for a maximum period of 2 weeks. An adequate broad dose-range is included with 64 μM as the highest in-test concentration. The culture medium RPMI-1640 is supplemented with L-glutamine, 2% glucose and buffered with 3-(N-morpholino)-propanesulfonic acid (MOPS) at pH 7.0±0.1.
(§2) The different fungal species/isolates (Table 3a) are cryopreserved and 1/1000 diluted in medium just prior to use. A standard inoculum of 200 μl containing 10^3 colony-forming unit (cfu) is then added to each well. A positive control (100% growth=fungal culture without antifungal) and a negative control (0% growth ═RPMI-MOPS medium) are included on each plate. Optimal incubation time and temperature are dependent on the fungal species and vary from 24 h for yeasts (37° C.) to one week or more for dermatophytes (27° C.). Inhibition of fungal growth is measured after adding 10 μl of 0.005% (w/v) resazurin (Sigma Aldrich) to each well, based on the principle that living cells convert the non-fluorescent blue resazurin into the pink and fluorescent resorufin, allowing fluorimetric reading (λex 550 nm and λem 590 nm) after an additional incubation period (‘resa’ time mentioned in Table 3a).

[2] = tested on: Cryptococcus neoformans; experiment: Antifungal activity in vitro, resazurin growth inhibition: Cryptococcus neoformans (B66663)
Procedure, shortened: (§3)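 Compound dilutions, with 64 μM as the highest in-test level, are spotted onto plates, then an inoculum of 10^3 cfu in RPMI-1640 plus 2% glucose (MOPS, pH 7.0±0.1) is added. Plates are incubated at species-dependent time and temperature, up to a week or more at 27° C. for dermatophytes.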

[3] = tested on: Trichophyton rubrum; experiment: Antifungal activity in vitro, resazurin growth inhibition: Trichophyton rubrum (B68183)
Procedure, shortened: (§4)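 Resazurin conversion to fluorescent resorufin (ex 550/em 590 nm) served as the growth readout. Compounds spanned 2- or 4-fold serial dilutions with 64 μM top in-test concentration; inoculum 10^3 cfu per well in MOPS-buffered RPMI-1640 (pH 7.0, 2% glucose). Incubation species-dependent, dermatophytes at 27° C. for ≥1 week.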

[4] = tested on: Candida parapsilosis; experiment: Antifungal activity in vitro, resazurin growth inhibition: Candida parapsilosis (B66126)
Procedure, shortened: as §3

[5] = tested on: Trichophyton mentagrophytes; experiment: Antifungal activity in vitro, resazurin growth inhibition: Trichophyton mentagrophytes (B70554)
Procedure, shortened: as §4

[6] = tested on: Scedosporium prolificans; experiment: Antifungal activity in vitro, resazurin growth inhibition: Scedosporium prolificans (IHEM21157)
Procedure, shortened: as §3

[7] = tested on: Rhizomucor miehei; experiment: Antifungal activity in vitro, resazurin growth inhibition: Rhizomucor miehei (IHEM13391)
Protocol: as §1, §2

[8] = tested on: Microsporum canis; experiment: Antifungal activity in vitro, resazurin growth inhibition: Microsporum canis (B68128)
Procedure, shortened: as §4

[9] = tested on: Scedosporium apiospermum; experiment: Antifungal activity in vitro, resazurin growth inhibition: Scedosporium apiospermum (IHEM3817)
Procedure, shortened: as §3

[10] = tested on: Sporothrix schenkii; experiment: Antifungal activity in vitro, resazurin growth inhibition: Sporothrix schenkii (B62482)
Procedure, shortened: as §3

[11] = tested on: Aspergillus fumigatus; experiment: Antifungal activity in vitro, resazurin growth inhibition: Aspergillus fumigatus (B42928)
Procedure, shortened: as §3

Row | SMILES | Inf. J: Rhizopus oryzae IHEM5223, pIC50 [1] | Inf. F: Cryptococcus neoformans B66663, pIC50 [2] | Inf. C: Trichophyton rubrum B68183, pIC50 [3] | Inf. D: Candida parapsilosis B66126, pIC50 [4] | Inf. G: Trichophyton mentagrophytes B70554, pIC50 [5] | Inf. I: Scedosporium prolificans IHEM21157, pIC50 [6] | Inf. K: Rhizomucor miehei IHEM13391, pIC50 [7] | Inf. B: Microsporum canis B68128, pIC50 [8] | Inf. H: Scedosporium apiospermum IHEM3817, pIC50 [9] | Inf. A: Sporothrix schenkii B62482, pIC50 [10] | Inf. E: Aspergillus fumigatus B42928, pIC50 [11]
1 | Clc1cccc2c1CN=C(c1cnc3c(c1)CCC3)c1cccn1-2 [Compound 105] | <4.19 | 5.30 | 6.87 | 4.91 | 6.91 | 8.00 | 4.23 | 6.67 | 7.52 | 5.70 | 5.76
2 | Cn1ccc2cc(C3=NCc4c(Cl)cc(Cl)cc4-n4cccc43)ccc21 [Compound 107] | <4.19 | 5.53 | 5.92 | 4.87 | 5.44 | 5.48 | <4.19 | 6.31 | 4.90 | 5.16 | 5.06
3 | Cn1nnc2ccc(C3=NCc4c(Cl)cccc4-n4cccc43)cc21 [Compound 110] | <4.49 | 5.09 | 5.96 | 4.58 | 5.60 | 5.89 | <4.49 | 5.30 | 4.77 | 4.44 | 5.50
4 | Cn1nnc2ccc(C3=NCc4c(Cl)cc(Cl)cc4-n4cccc43)cc21 [Compound 111] | <4.19 | 5.74 | 6.09 | <4.19 | 5.31 | 6.77 | 4.53 | 5.69 | 5.77 | 4.41 | 5.76
5 | c1ccc2c(c1)CN=C(c1cc3ccccc3o1)c1cccn1-2 [Compound 115] | <4.19 | 5.70 | 7.47 | 4.25 | 7.28 | 5.98 | 4.88 | 7.02 | <4.19 | 5.70 | 6.82
6 | Cc1cccc2c1CN=C(c1cc3ccccc3o1)c1cccn1-2 [Compound 116] | <4.19 | 5.65 | 7.52 | 4.70 | 6.83 | 6.46 | 4.81 | 7.39 | 6.22 | 5.84 | 6.26
7 | Cc1cccc2c1-n1cccc1C(c1cc3ccccc3o1)=NC2 [Compound 117] | <4.19 | 5.77 | 7.07 | <4.19 | 6.43 | 5.97 | 4.80 | 6.52 | 4.80 | 5.74 | 5.98
8 | Clc1ccc2c(c1)-n1cccc1C(c1cc3ccccc3o1)=NC2 [Compound 119] | <4.19 | 6.40 | 6.87 | 5.61 | 6.62 | 6.17 | <4.19 | 6.54 | <4.19 | 6.00 | 6.30
9 | Clc1cc(Cl)c2c(c1)-n1cccc1C(c1cc3ccccc3o1)=NC2 [Compound 120] | <4.19 | 5.52 | 6.31 | <4.19 | 5.81 | 5.52 | <4.19 | 6.16 | 4.19 | 4.86 | 5.99
10 | Clc1ccc2oc(C3=NCc4c(Cl)cccc4-n4cccc43)cc2c1 [Compound 121] | 5.77 | <4.19 | 6.82 | <4.19 | 6.86 | 6.15 | 5.58 | 6.96 | 5.97 | 6.11 | 5.52
11 | Cc1cccc2c1CN=C(c1cc3cc(Cl)ccc3o1)c1cccn1-2 [Compound 122] | <4.19 | 4.69 | 6.86 | <4.19 | 5.55 | 4.62 | <4.19 | 6.90 | <4.19 | 5.42 | 5.38
12 | Fc1ccc2oc(C3=NCc4c(Cl)cccc4-n4cccc43)cc2c1 [Compound 123] | <4.19 | 4.98 | 6.96 | <4.19 | 6.23 | 6.44 | 5.14 | 6.75 | 6.02 | 5.04 | 6.25
